# Data from US9938262B2, “Benzamides” (Merck Patent GmbH, priority 2011, dated 2018).
# Target: T1, FSHR (Homo sapiens, UniProt P23945)
# T1 construct: expressed in transfected cells; host or cells: CHO (Cho-FSHR-LUC-1-1-43)
# Assay: EC50 of cyclic AMP production in CHO FSHR cells + EC20 FSH (Assay A)
# Type: cell-based
# Conditions: Table 1; for EC50: CHO FSHR cells + EC20 FSH, read-out: Assay A EC50 of cyclic AMP production; for activation at 5 µM: 1 h, effect relative to maximum response of the FSH standard
# Procedure: Example 10: EC50 of Cyclic AMP Production in CHO FSHR Cells+EC20 FSH (Assay A)
# 2500 Cho-FSHR-LUC-1-1-43 cells were plated per well in 5 μl of phenol red free DMEM/F12+1% FBS. Cells were plated in 384 well, solid white low volume plates (Greiner 784075) by Multidrop. Cells were assayed by adding 100 μl of 2×EC20 FSH/IBMX in DMEM/F12+0.1% BSA) by Multidrop to 2 μl of test compound stamped in 384 well plates (compounds are diluted 1:50). The final FSH concentration was […], and the final IBMX concentration was 200 μM. The compound plate map was as follows: Column 1: 2 μl of DMSO; Column 2: 2 μl of DMSO; Columns 3-12 and 13-24: 2 μl of test compound, diluted 1:4 in 100% DMSO, or 2 μl of FSH, diluted 1:4 in DMEM/F12+0.1% BSA. The starting concentration for FSH was 50 nM (final concentration was 0.5 nM). […] 5 μl of compound+EC20 FSH mixture were transferred to cell plates (1:2 dilution into 5 μl of cell media) The plates were incubated at 37° C. for 1 h. 10 μl of mixed HTRF (CisBio #62AM4PEC) reagents were added per well and incubated at room temperature for 1 h. The plates were read on Envision using the cAMP HTRF—low volume 384 well protocol. The readout was the calculated fluorescence ratio (665 nm/620 nm). Values given in percent (%) indicate the percental effect (response) at a certain concentration of agonist relative to the maximum response of the FSH standard.
# T1 sequence (P23945 18-695): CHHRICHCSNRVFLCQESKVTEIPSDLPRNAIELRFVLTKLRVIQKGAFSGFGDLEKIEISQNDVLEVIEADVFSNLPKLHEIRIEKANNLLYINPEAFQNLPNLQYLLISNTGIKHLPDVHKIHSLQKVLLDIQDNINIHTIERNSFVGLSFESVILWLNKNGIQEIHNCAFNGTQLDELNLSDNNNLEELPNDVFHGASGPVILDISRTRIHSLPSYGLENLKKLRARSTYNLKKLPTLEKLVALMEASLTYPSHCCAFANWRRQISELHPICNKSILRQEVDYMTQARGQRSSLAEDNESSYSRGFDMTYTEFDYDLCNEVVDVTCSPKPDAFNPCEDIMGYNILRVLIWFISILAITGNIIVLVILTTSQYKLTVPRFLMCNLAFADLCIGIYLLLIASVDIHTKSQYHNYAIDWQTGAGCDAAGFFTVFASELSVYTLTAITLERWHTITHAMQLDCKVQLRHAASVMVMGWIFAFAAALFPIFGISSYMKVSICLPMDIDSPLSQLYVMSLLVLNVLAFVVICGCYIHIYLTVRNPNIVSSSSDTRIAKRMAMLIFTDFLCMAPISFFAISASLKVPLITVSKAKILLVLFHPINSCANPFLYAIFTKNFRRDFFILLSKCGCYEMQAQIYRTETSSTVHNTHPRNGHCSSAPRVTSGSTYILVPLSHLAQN
# T1 sequence (P01215 25-116 partner): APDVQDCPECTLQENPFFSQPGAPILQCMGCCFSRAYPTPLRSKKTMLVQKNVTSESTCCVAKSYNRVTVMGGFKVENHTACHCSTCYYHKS
# T1 sequence (P01225 19-129 partner): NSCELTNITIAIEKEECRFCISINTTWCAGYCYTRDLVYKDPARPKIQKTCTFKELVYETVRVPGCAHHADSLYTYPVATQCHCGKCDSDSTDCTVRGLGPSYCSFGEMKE
structure (smiles),measurement,value
"CCC(C)(C)C(=O)N(C)CCNC(=O)c1ccc(N2CCN(c3ccccc3C)CC2)c(NC(=O)c2ccco2)c1 [Compound 133, Furan-2-carboxylic acid [5-{2-[(2,2-dimethyl-butyryl)-methyl-amino]-ethylcarbamoyl}-2-(4-o-tolyl-piperazin-1-yl)-phenyl]-amide]",EC50,100 to 1000 nM
"Cc1ccccc1N1CCN(c2ccc(C(=O)NCCN(C)C(=O)c3ccc4c(c3)OCO4)cc2NC(=O)c2ccco2)CC1 [Compound 134, Benzo[1,3]dioxole-5-carboxylic acid {2-[3-[(furan-2-carbonyl)-amino]-4-(4-o-tolyl-piperazin-1-yl)-benzoylamino]-ethyl}-methyl-amide]",EC50,1000 to 10000 nM
Cc1ccccc1N1CCN(c2ccc(C(=O)NCCCN3CCCC3=O)cc2NC(=O)c2cc(C)c(C)o2)CC1 [Compound 138],activation at 5 µM,41%
CCc1ccc(C(=O)Nc2cc(C(=O)NCCCN3CCCC3=O)ccc2N2CCN(c3ccccc3C)CC2)o1 [Compound 140],EC50,100 to 1000 nM
COc1ccc(C(=O)Nc2cc(C(=O)NCCCN3CCCC3=O)ccc2N2CCN(c3ccccc3C)CC2)o1 [Compound 141],EC50,100 to 1000 nM
"Cc1ccc(C(=O)Nc2cc(C(=O)N[C@@H]3CCN(C(=O)OC(C)(C)C)C3)ccc2N2CCN(c3ccccc3C)CC2)o1 [Compound 142, (R)-3-[3-[(5-Methyl-furan-2-carbonyl)-amino]-4-(4-o-tolyl-piperazin-1-yl)-benzoylamino]-pyrrolidine-1-carboxylic acid tert-butyl ester]",EC50,1000 to 10000 nM
Cc1ccccc1N1CCN(c2ccc(C(=O)NCCCN3CCCC3=O)cc2NC(=O)c2cnoc2C(C)C)CC1 [Compound 145],activation at 5 µM,16%
Cc1ccccc1N1CCN(c2ccc(C(=O)NCCCN3CCCC3=O)cc2NC(=O)c2cccc(O)c2)CC1 [Compound 146],EC50,> 10000 nM
Cc1ccccc1N1CCN(c2ccc(C(=O)NCCCn3cccc3)cc2NC(=O)c2ccco2)CC1 [Compound 148],EC50,100 to 1000 nM
Cc1ccccc1N1CCN(c2ccc(C(=O)NCCCn3ccc4ccccc43)cc2NC(=O)c2ccco2)CC1 [Compound 149],activation at 5 µM,24%
Cc1ccccc1N1CCN(c2ccc(C(=O)NCC(=O)NC3CCCC3)cc2NC(=O)c2ccco2)CC1 [Compound 151],EC50,100 to 1000 nM
Cc1ccccc1N1CCN(c2ccc(C(=O)NCCCc3ccncc3)cc2NC(=O)c2ccco2)CC1 [Compound 153],EC50,100 to 1000 nM
Cc1ccccc1N1CCN(c2ccc(C(=O)NCC3(CN4CCCC4)CC3)cc2NC(=O)c2ccco2)CC1 [Compound 154],EC50,1000 to 10000 nM
Cc1ccccc1N1CCN(c2ccc(C(=O)NCCCN3C(=O)CN(C)C3=O)cc2NC(=O)c2ccco2)CC1 [Compound 156],EC50,100 to 1000 nM
Cc1ccccc1N1CCN(c2ccc(C(=O)NCCC3C[C@H]4CC[C@@H]3C4)cc2NC(=O)c2ccco2)CC1 (some centres unmarked) [Compound 157],EC50,100 to 1000 nM
Cc1ccccc1N1CCN(c2ccc(C(=O)NCCCN3CCCC3=O)cc2NC(=O)c2ncccc2F)CC1 [Compound 160],EC50,1000 to 10000 nM
Cc1ccccc1N1CCN(c2ccc(C(=O)NCCCN3CCCC3=O)cc2NC(=O)c2ccc(F)cc2F)CC1 [Compound 161],EC50,100 to 1000 nM
Cc1ccc(C(=O)Nc2cc(C(=O)NCCCN3CCCC3=O)ccc2N2CCN(c3ccccc3C)CC2)s1 [Compound 162],EC50,100 to 1000 nM
Cc1ccccc1N1CCN(c2ccc(C(=O)NCCCN3CCCC3=O)cc2NC(=O)c2cccc(C(N)=O)c2)CC1 [Compound 163],activation at 5 µM,8%
CC(=O)Nc1ccc(C(=O)Nc2cc(C(=O)NCCCN3CCCC3=O)ccc2N2CCN(c3ccccc3C)CC2)o1 [Compound 164],EC50,1000 to 10000 nM
"Cc1ccc(C(=O)Nc2cc(C(=O)NCCCN3CCCC3=O)ccc2N2CCC(c3ccccc3C)CC2)o1 [Compound 165, 5-Methyl-furan-2-carboxylic acid [5-[3-(2-oxo-pyrrolidin-1-yl)-propylcarbamoyl]-2-(4-o-tolyl-piperidin-1-yl)-phenyl]-amide]",EC50,> 10000 nM
COc1ccccc1N1CCN(c2ccc(C(=O)NCCCN3CCCC3=O)cc2NC(=O)c2ccco2)CC1 [Compound 166],activation at 5 µM,20%
"Cc1ccc(C(=O)Nc2cc(C(=O)NCCCN3CCCC3=O)ccc2N2CCN(c3ccccc3)CC2)o1 [Compound 167, 5-Methyl-furan-2-carboxylic acid [5-[3-(2-oxo-pyrrolidin-1-yl)-propylcarbamoyl]-2-(4-phenyl-piperazin-1-yl)-phenyl]-amide]",EC50,1000 to 10000 nM
Cc1ccc(C(=O)Nc2cc(C(=O)NCc3cccc(Br)c3)ccc2N2CCN(c3ccccc3C)CC2)o1 [Compound 170],activation at 5 µM,32%
"COc1ccc(CNC(=O)c2ccc(N3CCN(c4ccccc4C)CC3)c(NC(=O)c3ccc(C)o3)c2)cc1OC [Compound 171, 5-Methyl-furan-2-carboxylic acid [5-(3,4-dimethoxy-benzylcarbamoyl)-2-(4-o-tolyl-piperazin-1-yl)-phenyl]-amide]",EC50,1000 to 10000 nM
"COc1ccc(-c2c[nH]nc2CNC(=O)c2ccc(N3CCN(c4ccccc4C)CC3)c(NC(=O)c3ccc(C)o3)c2)cc1 [Compound 172, 5-Methyl-furan-2-carboxylic acid [5-{[4-(4-methoxy-phenyl)-1H-pyrazol-3-ylmethyl]-carbamoyl}-2-(4-o-tolyl-piperazin-1-yl)-phenyl]-amide]",EC50,1000 to 10000 nM
"COc1ccccc1N1CCN(c2ccc(C(=O)NCCCN3CCCC3=O)cc2NC(=O)c2ccc(C)o2)CC1 [Compound 173, 5-Methyl-furan-2-carboxylic acid {2-[4-(2-methoxy-phenyl)-piperazin-1-yl]-5-[3-(2-oxo-pyrrolidin-1-yl)-propylcarbamoyl]-phenyl}-amide]",EC50,1000 to 10000 nM
"Cc1ccc(C(=O)Nc2cc(C(=O)NCCN3CCS(=O)(=O)CC3)ccc2N2CCN(c3ccccc3C)CC2)o1 [Compound 174, 5-Methyl-furan-2-carboxylic acid [5-[2-(1,1-dioxo-1 lambda*6*-thiomorpholin-4-yl)ethylcarbamoyl]-2-(4-o-tolyl-piperazin-1-yl)-phenyl]-amide]",EC50,1000 to 10000 nM
"Cc1ccc(C(=O)Nc2cc(C(=O)NC3CCN(C(=O)OC(C)(C)C)CC3)ccc2N2CCN(c3ccccc3C)CC2)o1 [Compound 175, 4-[3-[(5-methyl-furan-2-carbonyl)-amino]-4-(4-o-tolyl-piperazin-1-yl)-benzoylamino]-piperidine-1-carboxylic acid tert-butyl ester]",EC50,1000 to 10000 nM
"Cc1ccccc1N1CCN(c2ccc(C(=O)NCCCN3CCCC3=O)cc2NC(=O)C(C)(C)C)CC1 [Compound 177, 3-(2,2-Dimethyl-propionylamino)-N-[3-(2-oxo-pyrrolidin-1-yl)-propyl]-4-(4-o-tolyl-piperazin-1-yl)-benzamide]",EC50,1000 to 10000 nM
Cc1ccccc1N1CCN(c2ccc(C(=O)NCCCN3CCCC3=O)cc2NC(=O)c2nc(Br)cs2)CC1 [Compound 178],EC50,1000 to 10000 nM
Cc1ccccc1N1CCN(c2ccc(C(=O)NCCCN3CCCC3=O)cc2NC(=O)c2ncsc2C)CC1 [Compound 179],EC50,100 to 1000 nM
Cc1ccccc1N1CCN(c2ccc(C(=O)NCCC(C)N3CCCC3)cc2NC(=O)c2ccco2)CC1 (centres unmarked) [Compound 181],EC50,1000 to 10000 nM
"Cc1ccc(C(=O)Nc2cc(C(=O)NCCc3c[nH]cn3)ccc2N2CCN(c3ccccc3C)CC2)o1 [Compound 185, 5-Methyl-furan-2-carboxylic acid [5-[2-(1H-imidazol-4-yl)-ethylcarbamoyl]-2-(4-o-tolyl-piperazin-1-yl)-phenyl]-amide]",EC50,1000 to 10000 nM
"Cc1cccc(C(=O)Nc2cc(C(=O)NCCCN3CCCC3=O)ccc2N2CCN(c3ccccc3C)CC2)n1 [Compound 186, 6-Methyl-pyridine-2-carboxylic acid [5-[3-(2-oxo-pyrrolidin-1-yl)-propylcarbamoyl]-2-(4-o-tolyl-piperazin-1-yl)-phenyl]-amide]",EC50,1000 to 10000 nM
Cc1ccccc1N1CCN(c2ccc(C(=O)N[C@H]3O[C@@H](CO)[C@@H]4OC(C)(C)O[C@@H]43)cc2NC(=O)c2ccco2)CC1 [Compound 191],EC50,100 to 1000 nM
Cc1ccccc1N1CCN(c2ccc(C(=O)NCCCN)cc2NC(=O)c2ccco2)CC1 [Compound 192],EC50,100 to 1000 nM
"Cc1ccc(C(=O)Nc2cc(C(=O)NCCCN3CCCC3=O)ccc2N2CCCN(c3ccccc3C)CC2)o1 [Compound 194, 5-Methyl-furan-2-carboxylic acid [5-[3-(2-oxo-pyrrolidin-1-yl)-propylcarbamoyl]-2-(4-o-tolyl-[1,4]diazepan-1-yl)-phenyl]-amide]",EC50,1000 to 10000 nM
"Cc1ccc(C(=O)Nc2cc(C(=O)NC3CC3)ccc2N2CCN(c3ccccc3C)CC2)o1 [Compound 195, 5-Methyl-furan-2-carboxylic acid [5-cyclopropylcarbamoyl-2-(4-o-tolyl-piperazin-1-yl)-phenyl]amide]",EC50,1000 to 10000 nM
Cc1ccc(C(=O)Nc2cc(C(=O)NCCCCCCNC(=O)OC(C)(C)C)ccc2N2CCN(c3ccccc3C)CC2)o1 [Compound 196],activation at 5 µM,22%
Cc1ccccc1N1CCN(c2ccc(C(=O)NCCCN3CCCC3=O)cc2NC(=O)c2cnc(Cl)s2)CC1 [Compound 197],EC50,1000 to 10000 nM
